Test results: PubChem BioAssay (NCI)
Values joined by “and” are separate entries in the source; they are usually repeats but may differ in a detail not shown here. Equal values may be shown once.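 Results reflect a 48-hour exposure of cells in 96-well plates to compound at five concentrations. GI50: concentration for 50% inhibition of growth. TGI denotes the concentration required for complete inhibition of growth.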

tested on: EKVX NSCLC; experiment: NCI-60 cell line screen, 48 h

SMILES	GI50	TGI
COc1cc2nc(-c3ccc(Cl)cc3)cc(OCCCN3CCCCC3)c2cc1OC	1.47 µM	> 100 µM
O=c1c2sc(=S)n(-c3ccc(F)cc3)c2ncn1Cc1ccc(F)cc1F	> 100 µM	> 100 µM
C=CCCCCC/C=C\[C@H](O)C#CC#C/C=C/CO	52.7 µM	> 100 µM
O=C(OC(CNc1cc(=O)n(Cc2ccccc2)c(=O)n1Cc1ccccc1)CN1CCCC1)c1ccccc1 (centres undefined)	> 100 µM	> 100 µM
CCOC(=O)CCCn1c(SC)nc2[nH]cc(-c3ccccc3)c2c1=O	24.8 µM	85.8 µM
CC(C)c1ccc2c(c1)CC[C@@H]1[C@@](C)(C(=O)O)CCC[C@]21C	1.82 µM	6.94 µM
CC(C)=CC/C=C(/C)[C@H]1CC[C@]2(C)[C@@H]1CC[C@@H]1[C@@]3(C)CCCNC(C)(C)[C@@H]3CC[C@]12C	10.6 µM	28.4 µM
CCCCCCCCCCCCCC1=NC(C)(C)CN1C(C)C	1.49 µM	3.17 µM
CCC(C)n1ncn(-c2ccc(N3CCN(c4ccc(OCC5COC(Cn6cncn6)(c6ccc(Cl)cc6Cl)O5)cc4)CC3)cc2)c1=O (centres undefined)	1.24 µM	> 100 µM
CC(C)CCN1c2nc(Nc3cc(F)c(O)c(F)c3)ncc2N(C)C(=O)C1C (centres undefined)	9.26 µM	> 100 µM
NC(=O)NC1C(c2ccccc2)=C1c1ccccc1	–	60 µM
Cc1nc2c(-c3cnc(N)nc3)nc(N3CCOCC3)nc2n1C(C)C	–	1.81 µM
CCCCCCCCCCCCOC1C(C(COC2OC(C3COC(C)(C)O3)C3OC(C)(C)OC23)NC(=O)Nc2ccc(C(=O)O)cc2)OC2OC(C)(C)OC21 (centres undefined)	2.69 µM	10.8 µM

tested on: HT29 colon; experiment: NCI-60 cell line screen, 48 h

SMILES	GI50	TGI
O=c1c2sc(=S)n(-c3ccc(F)cc3)c2ncn1Cc1ccc(F)cc1F	> 100 µM	> 100 µM
C=CCCCCC/C=C\[C@H](O)C#CC#C/C=C/CO	> 100 µM	> 100 µM
O=C(OC(CNc1cc(=O)n(Cc2ccccc2)c(=O)n1Cc1ccccc1)CN1CCCC1)c1ccccc1 (centres undefined)	35 µM	> 100 µM
CCOC(=O)CCCn1c(SC)nc2[nH]cc(-c3ccccc3)c2c1=O	19.5 µM	59.7 µM
CCN(CC)CCOc1ccc(-c2nc3cc(Cl)ccc3s2)cc1	0.6 µM	1.84 µM
CC(C)=CC/C=C(/C)[C@H]1CC[C@]2(C)[C@@H]1CC[C@@H]1[C@@]3(C)CCCNC(C)(C)[C@@H]3CC[C@]12C	1.71 µM	3.67 µM
CCCCCCCCCCCCCC1=NC(C)(C)CN1C(C)C	0.422 µM	1.47 µM
CCC(C)n1ncn(-c2ccc(N3CCN(c4ccc(OCC5COC(Cn6cncn6)(c6ccc(Cl)cc6Cl)O5)cc4)CC3)cc2)c1=O (centres undefined)	0.867 µM	> 100 µM
CC(C)CCN1c2nc(Nc3cc(F)c(O)c(F)c3)ncc2N(C)C(=O)C1C (centres undefined)	5.83 µM	46.7 µM
NC(=O)NC1C(c2ccccc2)=C1c1ccccc1	–	46.1 µM
CCCCCCCCCCCCOC1C(C(COC2OC(C3COC(C)(C)O3)C3OC(C)(C)OC23)NC(=O)Nc2ccc(C(=O)O)cc2)OC2OC(C)(C)OC21 (centres undefined)	2.01 µM	6.88 µM
COc1cnc2c(c1)C(=O)c1c-2n(CCCNC(C)C)c(=O)c2cc(Cl)ccc12	0.398 µM	2.09 µM

tested on: LOX IMVI melanoma; experiment: NCI-60 cell line screen, 48 h

SMILES	GI50	TGI
O=c1c2sc(=S)n(-c3ccc(F)cc3)c2ncn1Cc1ccc(F)cc1F	> 100 µM	> 100 µM
C=CCCCCC/C=C\[C@H](O)C#CC#C/C=C/CO	16.4 µM	29.9 µM
O=C(OC(CNc1cc(=O)n(Cc2ccccc2)c(=O)n1Cc1ccccc1)CN1CCCC1)c1ccccc1 (centres undefined)	> 100 µM	> 100 µM
CCOC(=O)CCCn1c(SC)nc2[nH]cc(-c3ccccc3)c2c1=O	11.3 µM	25.8 µM
CC(C)c1ccc2c(c1)CC[C@@H]1[C@@](C)(C(=O)O)CCC[C@]21C	3.43 µM	16.8 µM
CCN(CC)CCOc1ccc(-c2nc3cc(Cl)ccc3s2)cc1	1.39 µM	2.68 µM
CCC(C)n1ncn(-c2ccc(N3CCN(c4ccc(OCC5COC(Cn6cncn6)(c6ccc(Cl)cc6Cl)O5)cc4)CC3)cc2)c1=O (centres undefined)	9.41 µM	> 100 µM
CC(C)CCN1c2nc(Nc3cc(F)c(O)c(F)c3)ncc2N(C)C(=O)C1C (centres undefined)	4.11 µM	20.8 µM
NC(=O)NC1C(c2ccccc2)=C1c1ccccc1	–	38.4 µM
Cc1nc2c(-c3cnc(N)nc3)nc(N3CCOCC3)nc2n1C(C)C	–	1.56 µM and 6.03 µM
CCCCCCCCCCCCOC1C(C(COC2OC(C3COC(C)(C)O3)C3OC(C)(C)OC23)NC(=O)Nc2ccc(C(=O)O)cc2)OC2OC(C)(C)OC21 (centres undefined)	3.23 µM	10.3 µM

tested on: NCI-H23 lung; experiment: NCI-60 cell line screen, 48 h

SMILES	GI50	TGI
COc1cc2nc(-c3ccc(Cl)cc3)cc(OCCCN3CCCCC3)c2cc1OC	2.95 µM	> 100 µM
O=c1c2sc(=S)n(-c3ccc(F)cc3)c2ncn1Cc1ccc(F)cc1F	> 100 µM	> 100 µM
C=CCCCCC/C=C\[C@H](O)C#CC#C/C=C/CO	22.6 µM	50.9 µM
O=C(OC(CNc1cc(=O)n(Cc2ccccc2)c(=O)n1Cc1ccccc1)CN1CCCC1)c1ccccc1 (centres undefined)	> 100 µM	> 100 µM
CCOC(=O)CCCn1c(SC)nc2[nH]cc(-c3ccccc3)c2c1=O	11.6 µM	34.6 µM
CCN(CC)CCOc1ccc(-c2nc3cc(Cl)ccc3s2)cc1	1.64 µM	3.32 µM
CC(C)=CC/C=C(/C)[C@H]1CC[C@]2(C)[C@@H]1CC[C@@H]1[C@@]3(C)CCCNC(C)(C)[C@@H]3CC[C@]12C	3.17 µM	–
CCCCCCCCCCCCCC1=NC(C)(C)CN1C(C)C	1.67 µM	3.11 µM
CCC(C)n1ncn(-c2ccc(N3CCN(c4ccc(OCC5COC(Cn6cncn6)(c6ccc(Cl)cc6Cl)O5)cc4)CC3)cc2)c1=O (centres undefined)	27.8 µM	> 100 µM
CC(C)CCN1c2nc(Nc3cc(F)c(O)c(F)c3)ncc2N(C)C(=O)C1C (centres undefined)	5.27 µM	67.8 µM
NC(=O)NC1C(c2ccccc2)=C1c1ccccc1	–	61.4 µM
CCCCCCCCCCCCOC1C(C(COC2OC(C3COC(C)(C)O3)C3OC(C)(C)OC23)NC(=O)Nc2ccc(C(=O)O)cc2)OC2OC(C)(C)OC21 (centres undefined)	2.64 µM	6.83 µM

tested on: NCI-H460 lung; experiment: NCI-60 cell line screen, 48 h

SMILES	GI50	TGI
COc1cc2nc(-c3ccc(Cl)cc3)cc(OCCCN3CCCCC3)c2cc1OC	0.842 µM	> 100 µM
O=c1c2sc(=S)n(-c3ccc(F)cc3)c2ncn1Cc1ccc(F)cc1F	> 100 µM	> 100 µM
C=CCCCCC/C=C\[C@H](O)C#CC#C/C=C/CO	> 100 µM	> 100 µM
O=C(OC(CNc1cc(=O)n(Cc2ccccc2)c(=O)n1Cc1ccccc1)CN1CCCC1)c1ccccc1 (centres undefined)	> 100 µM	> 100 µM
CCOC(=O)CCCn1c(SC)nc2[nH]cc(-c3ccccc3)c2c1=O	33.6 µM	> 100 µM
CC(C)c1ccc2c(c1)CC[C@@H]1[C@@](C)(C(=O)O)CCC[C@]21C	5.07 µM	18.4 µM
CCN(CC)CCOc1ccc(-c2nc3cc(Cl)ccc3s2)cc1	1.59 µM	2.93 µM
CC(C)=CC/C=C(/C)[C@H]1CC[C@]2(C)[C@@H]1CC[C@@H]1[C@@]3(C)CCCNC(C)(C)[C@@H]3CC[C@]12C	2.11 µM	4.4 µM
CCCCCCCCCCCCCC1=NC(C)(C)CN1C(C)C	1.89 µM	3.3 µM
CCC(C)n1ncn(-c2ccc(N3CCN(c4ccc(OCC5COC(Cn6cncn6)(c6ccc(Cl)cc6Cl)O5)cc4)CC3)cc2)c1=O (centres undefined)	9.62 µM	> 100 µM
CC(C)CCN1c2nc(Nc3cc(F)c(O)c(F)c3)ncc2N(C)C(=O)C1C (centres undefined)	3.91 µM	17 µM
NC(=O)NC1C(c2ccccc2)=C1c1ccccc1	–	36 µM
Cc1nc2c(-c3cnc(N)nc3)nc(N3CCOCC3)nc2n1C(C)C	–	> 100 µM
CCCCCCCCCCCCOC1C(C(COC2OC(C3COC(C)(C)O3)C3OC(C)(C)OC23)NC(=O)Nc2ccc(C(=O)O)cc2)OC2OC(C)(C)OC21 (centres undefined)	2.45 µM	5.89 µM
COc1cnc2c(c1)C(=O)c1c-2n(CCCNC(C)C)c(=O)c2cc(Cl)ccc12	0.0372 µM	1.2 µM

tested on: OVCAR-3 ovarian; experiment: NCI-60 cell line screen, 48 h

SMILES	GI50	TGI
COc1cc2nc(-c3ccc(Cl)cc3)cc(OCCCN3CCCCC3)c2cc1OC	3.23 µM	> 100 µM
O=c1c2sc(=S)n(-c3ccc(F)cc3)c2ncn1Cc1ccc(F)cc1F	> 100 µM	> 100 µM
C=CCCCCC/C=C\[C@H](O)C#CC#C/C=C/CO	31.7 µM	80.3 µM
O=C(OC(CNc1cc(=O)n(Cc2ccccc2)c(=O)n1Cc1ccccc1)CN1CCCC1)c1ccccc1 (centres undefined)	> 100 µM	> 100 µM
CCOC(=O)CCCn1c(SC)nc2[nH]cc(-c3ccccc3)c2c1=O	16.8 µM	42.6 µM
CC(C)c1ccc2c(c1)CC[C@@H]1[C@@](C)(C(=O)O)CCC[C@]21C	1.8 µM	13.8 µM
CC(C)=CC/C=C(/C)[C@H]1CC[C@]2(C)[C@@H]1CC[C@@H]1[C@@]3(C)CCCNC(C)(C)[C@@H]3CC[C@]12C	2.08 µM	4.28 µM
CCCCCCCCCCCCCC1=NC(C)(C)CN1C(C)C	1.48 µM	2.8 µM
CCC(C)n1ncn(-c2ccc(N3CCN(c4ccc(OCC5COC(Cn6cncn6)(c6ccc(Cl)cc6Cl)O5)cc4)CC3)cc2)c1=O (centres undefined)	40.9 µM	> 100 µM
CC(C)CCN1c2nc(Nc3cc(F)c(O)c(F)c3)ncc2N(C)C(=O)C1C (centres undefined)	3.65 µM	24.1 µM
NC(=O)NC1C(c2ccccc2)=C1c1ccccc1	–	82.9 µM
Cc1nc2c(-c3cnc(N)nc3)nc(N3CCOCC3)nc2n1C(C)C	–	1.64 µM and 1.92 µM
CCCCCCCCCCCCOC1C(C(COC2OC(C3COC(C)(C)O3)C3OC(C)(C)OC23)NC(=O)Nc2ccc(C(=O)O)cc2)OC2OC(C)(C)OC21 (centres undefined)	2.48 µM	7.49 µM
COc1cnc2c(c1)C(=O)c1c-2n(CCCNC(C)C)c(=O)c2cc(Cl)ccc12	1.39 µM	3.02 µM

tested on: RPMI-8226 leukemia; experiment: NCI-60 cell line screen, 48 h

SMILES	GI50	TGI
O=c1c2sc(=S)n(-c3ccc(F)cc3)c2ncn1Cc1ccc(F)cc1F	> 100 µM	> 100 µM
C=CCCCCC/C=C\[C@H](O)C#CC#C/C=C/CO	14 µM	32.2 µM
O=C(OC(CNc1cc(=O)n(Cc2ccccc2)c(=O)n1Cc1ccccc1)CN1CCCC1)c1ccccc1 (centres undefined)	29.3 µM	> 100 µM
CCOC(=O)CCCn1c(SC)nc2[nH]cc(-c3ccccc3)c2c1=O	14.6 µM	36.3 µM
CC(C)c1ccc2c(c1)CC[C@@H]1[C@@](C)(C(=O)O)CCC[C@]21C	2.47 µM	6.19 µM
CCN(CC)CCOc1ccc(-c2nc3cc(Cl)ccc3s2)cc1	0.715 µM	3.34 µM
CC(C)=CC/C=C(/C)[C@H]1CC[C@]2(C)[C@@H]1CC[C@@H]1[C@@]3(C)CCCNC(C)(C)[C@@H]3CC[C@]12C	2.12 µM	4.97 µM
CCCCCCCCCCCCCC1=NC(C)(C)CN1C(C)C	1.2 µM	3.03 µM
CCC(C)n1ncn(-c2ccc(N3CCN(c4ccc(OCC5COC(Cn6cncn6)(c6ccc(Cl)cc6Cl)O5)cc4)CC3)cc2)c1=O (centres undefined)	0.973 µM	> 100 µM
CC(C)CCN1c2nc(Nc3cc(F)c(O)c(F)c3)ncc2N(C)C(=O)C1C (centres undefined)	2.82 µM	11.5 µM
NC(=O)NC1C(c2ccccc2)=C1c1ccccc1	–	45.4 µM
Cc1nc2c(-c3cnc(N)nc3)nc(N3CCOCC3)nc2n1C(C)C	0.179 µM and 0.123 µM	> 3 µM and 10.9 µM
CCCCCCCCCCCCOC1C(C(COC2OC(C3COC(C)(C)O3)C3OC(C)(C)OC23)NC(=O)Nc2ccc(C(=O)O)cc2)OC2OC(C)(C)OC21 (centres undefined)	1.69 µM	4.29 µM
COc1cnc2c(c1)C(=O)c1c-2n(CCCNC(C)C)c(=O)c2cc(Cl)ccc12	1.21 µM	3.35 µM

tested on: SR leukemia; experiment: NCI-60 cell line screen, 48 h

SMILES	GI50	TGI
COc1cc2nc(-c3ccc(Cl)cc3)cc(OCCCN3CCCCC3)c2cc1OC	0.374 µM	2.85 µM
COc1cnc2c(c1)C(=O)c1c-2n(CCCNC(C)C)c(=O)c2cc(Cl)ccc12	0.0577 µM	0.464 µM
